Results from patent US10363251B2, “(+)-morphinans as antagonists of toll-like receptor 9 and therapeutic uses thereof” (Mallinckrodt LLC, priority 2009, dated 2019).

Key:
TLR2 = molecular target: T1, TLR2 (Homo sapiens, UniProt O60603); test: TLR2 antagonist screening, NF-κB-inducible SEAP reporter in HEK293 cells; assay type: cell-based; settings: for Average % Inhibition at TLR2: 10 μM, stimulated with HKLM at 10^8 cell/ml
T1 construct: expressed in transfected cells; host or cells: HEK293
Method: (§1) Stimulation of TLRs 2, 3, 4, 5, 7, 8, and 9 was determined by assessing activation of the transcription factor NF-κB in HEK293 cells that were engineered to express the corresponding receptors. Assessment of TLR stimulation was based on the use of an NF-κB-inducible secreted alkaline phosphatase (SEAP) reporter system in which the SEAP reporter was under the control of a promoter inducible by NF-κB. Thus, the degree of activation of TLRs can be indirectly quantified spectrophotometrically by measuring the amount of the SEAP reporter that is produced.
(§2) The appropriate TLR-expressing cells were plated in Growth Medium in a 96-well plate (25,000-50,000 cells/well). The cells were stimulated with the appropriate positive control ligand or no ligand was added (negative control). The positive control ligands were: HKLM was used to stimulate TLR2; poly(I:C) was used to stimulate TLR3; LPS was used to stimulate TLR4; Flagellin was used to stimulate TLR5; CL097 was used to stimulate TLR7; CL075 was used to stimulate TLR8; CpG oligodeoxynucleotide (ODN) 2006 was used to stimulate TLR9. To test whether (+)-morphinans could block that activation of the TLR, the cells were pretreated with an antagonist for 30 minutes prior to addition of the positive control ligand. For this, 20 μL of the stock test compound solution (100 μM in H2O) was added to give a total volume of 200 μL. […] After a 16-20 hr incubation period at 37° C. in a CO2 incubator, 20 μL of the cell culture supernatant was added to 180 μL of QUANTI-Blue™ Media (InvivoGen, San Diego, Calif.), and the resulting solutions were incubated at 37° C. for an additional 1-3 hours according to the manufacturer's instructions. The OD's of the samples were then read at 650 nm on a Beckman Coulter AD 340C Absorbance Detector.

TLR8 = molecular target: T2, TLR8 (Homo sapiens, UniProt Q9NR97); test: TLR8 antagonist screening, NF-κB-inducible SEAP reporter in HEK293 cells; assay type: cell-based; settings: for Average % Inhibition at TLR8: 10 μM, stimulated with CL075 at 1 μg/ml
T2 construct: expressed in transfected cells; host or cells: HEK293
T2 sequence (Q9NR97 27-1041): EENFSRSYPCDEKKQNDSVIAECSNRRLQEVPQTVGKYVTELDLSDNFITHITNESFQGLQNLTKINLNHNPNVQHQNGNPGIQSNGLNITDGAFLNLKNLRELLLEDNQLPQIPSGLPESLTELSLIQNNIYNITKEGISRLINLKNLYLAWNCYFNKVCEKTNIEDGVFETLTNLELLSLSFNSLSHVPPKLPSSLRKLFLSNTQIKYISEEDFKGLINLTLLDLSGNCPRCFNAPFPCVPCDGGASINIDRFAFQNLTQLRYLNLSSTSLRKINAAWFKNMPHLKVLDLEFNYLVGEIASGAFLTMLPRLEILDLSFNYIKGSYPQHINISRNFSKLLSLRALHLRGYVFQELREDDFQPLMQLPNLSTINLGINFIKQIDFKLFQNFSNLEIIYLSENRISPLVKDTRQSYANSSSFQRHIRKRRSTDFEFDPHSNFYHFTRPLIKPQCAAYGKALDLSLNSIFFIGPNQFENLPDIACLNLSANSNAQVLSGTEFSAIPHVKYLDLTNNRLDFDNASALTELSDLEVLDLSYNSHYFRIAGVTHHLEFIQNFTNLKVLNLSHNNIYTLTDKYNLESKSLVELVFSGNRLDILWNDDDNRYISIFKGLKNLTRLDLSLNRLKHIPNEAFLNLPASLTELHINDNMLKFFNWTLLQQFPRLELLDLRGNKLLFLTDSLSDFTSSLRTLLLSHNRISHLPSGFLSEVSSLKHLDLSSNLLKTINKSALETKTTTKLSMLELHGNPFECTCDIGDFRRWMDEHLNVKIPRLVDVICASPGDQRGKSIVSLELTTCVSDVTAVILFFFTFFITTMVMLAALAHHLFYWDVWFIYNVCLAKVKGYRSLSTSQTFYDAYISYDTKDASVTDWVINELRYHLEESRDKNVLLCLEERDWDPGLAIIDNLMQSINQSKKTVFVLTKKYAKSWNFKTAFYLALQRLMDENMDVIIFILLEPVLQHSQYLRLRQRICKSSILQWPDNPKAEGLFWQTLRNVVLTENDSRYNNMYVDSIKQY
Method: as §1
as §2, with “ligand.” for “ligand. For this, 20 μL of the stock test compound solution (100 μM in H2O) was added to give a total volume of 200 μL.”

T1 sequence (O60603 21-784, species assumed): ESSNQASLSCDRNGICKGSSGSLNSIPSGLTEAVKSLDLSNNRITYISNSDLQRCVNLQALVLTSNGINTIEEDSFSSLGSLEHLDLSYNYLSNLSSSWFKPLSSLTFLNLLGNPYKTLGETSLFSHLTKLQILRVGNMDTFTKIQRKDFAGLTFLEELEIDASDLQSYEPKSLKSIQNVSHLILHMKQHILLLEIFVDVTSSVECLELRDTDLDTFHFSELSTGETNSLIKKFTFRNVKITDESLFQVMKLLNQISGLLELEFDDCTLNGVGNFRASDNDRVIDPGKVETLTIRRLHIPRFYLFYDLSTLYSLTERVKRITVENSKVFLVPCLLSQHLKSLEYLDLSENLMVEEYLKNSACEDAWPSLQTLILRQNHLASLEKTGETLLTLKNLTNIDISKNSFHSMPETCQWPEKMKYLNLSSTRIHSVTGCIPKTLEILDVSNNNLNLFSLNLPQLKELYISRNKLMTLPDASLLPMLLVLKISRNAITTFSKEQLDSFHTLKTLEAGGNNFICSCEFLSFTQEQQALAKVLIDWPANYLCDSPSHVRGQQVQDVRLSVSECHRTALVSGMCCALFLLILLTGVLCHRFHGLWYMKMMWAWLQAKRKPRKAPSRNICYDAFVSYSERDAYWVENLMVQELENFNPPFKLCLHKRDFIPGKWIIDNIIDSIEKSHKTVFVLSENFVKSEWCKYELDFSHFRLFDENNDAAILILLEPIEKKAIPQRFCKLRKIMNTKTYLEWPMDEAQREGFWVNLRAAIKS

Compound | Average % Inhibition at TLR2 (TLR2) [%] | Average % Inhibition at TLR8 (TLR8) [%] | inhibition at 10 µM (TLR2; HEK293, stimulated with HKLM at 10^8 cell/ml) [%] | inhibition at 10 µM (TLR8; HEK293, stimulated with CL075 at 1 μg/ml) [%]
C=CCN1CC[C@]23c4c5ccc(O)c4O[C@H]2C(=O)CC[C@]3(O)[C@H]1C5 [(+)-Naloxone, (+)-naloxone] | 24 | 24 | – | –
COc1ccc2c(c1O)[C@@]13CCN(C)[C@@H](C2)[C@H]1CC(OC)C(=O)C3 (stereo partly drawn) [Dihydrosinomenine, dihydrosinomenine] | 27 | 21 | – | –
COC1=C[C@@H]2[C@@H]3Cc4ccc(OC)c(O)c4[C@]2(CCN3C)CC1=O [Sinomenine, sinomenine] | – | – | 30 | 20
